Experimental data reported in patent US7652050B2, “Methods for increasing the survival of aquatic animals infected with an aquatic virus” (Laboratorio de Siagnóstico GAM S.A, priority 2001, dated 2010).
Values after ≈ are worked out from the molar mass of the structure shown. “Also recorded” adds a separate entry of the source. Where two headings read alike, the source gives them in different places.

How the values were obtained:
in vitro = conditions: Chinook salmon
IPNV strain VR-299 [1] = conditions: cited from earlier work
IPNV [2] = conditions: cited from earlier work
IPNV [3] = conditions: at 100 to 300 μg/ml; cited from earlier work
IPNV strain VR-299 [4] = assay: Virus plaque inhibition assay; type: cell-based; conditions: Infectious pancreatic necrosis virus, CHSE-214, 72 h, read-out: EC50, effective antiviral concentration required to inhibit IPNV plaque formation by 50%
IPNV genomic RNA = type: cell-based, infectious pancreatic necrosis virus (IPNV)
IPNV particles = type: cell-based, infectious pancreatic necrosis virus (IPNV); conditions: acivicin 25 and 70 μg/ml, 24 and 48 h.p.i.
IPNV [5] = assay: Modified viral plaque inhibition assay with pre-incubation of virus (virus cell entry); type: cell-based, infectious pancreatic necrosis virus (IPNV); conditions: for EC50: Infectious pancreatic necrosis virus
Method: Compounds derived from isoxazol are assayed for their ability to inhibit viral entry into the cell. To determine if acivicin blocks the entry of IPNV, a modified viral plaque inhibition assay was conducted. […] Control viral samples were not pre-incubated with acivicin. […] Overnight incubation of the virus in acivicin increased the ability of the isoxazol compound to inhibit viral plaques by 38 percent.

IPNV [6] = assay: Survival of IPNV-infected Atlantic salmon fry treated with acivicin by immersion; type: in vivo
[7] = Uninfected Atlantic salmon fry treated with acivicin (toxicity control); type: in vivo; conditions: uninfected fish treated with 14 μg/ml acivicin
Method: Starting nine days post-infection (day 9), surviving fish are divided into four groups of forty fish each and treated with 0, 7.0, 10.8, or 14.0 μg/ml of acivicin by immersion in a 2 hour daily bath containing […]. One group corresponded to untreated fish, and the other three groups corresponded to fish groups treated with different concentrations of acivicin. As a negative control, there were two groups of 40 healthy fish in each; one group corresponded to an uninfected fry administered 14 μg/ml of acivicin while the other group was not infected or administered acivicin. Daily treatment in acivicin continued through day 21 post-infection (day 21). The fish were followed for 36 days post-infection to detect and document mortality.

IPNV [8] = assay: Survival of naturally infected rainbow trout fry treated with acivicin; type: in vivo, rainbow trout (Onchorhynchus mykiss)
Method: FIG. 4 is a graph showing the effect of acivicin treatment on the survival of rainbow trout fry naturally infection with IPNV. The fish were followed for 30 days starting at day one of the acivicin treatments, to detect and document deaths. The data are presented in terms of percent survival: • ●---●: untreated naturally infected fish, positive control. • σ--σ: naturally infected fish treated with 9 μg/ml of Acivicin.
Acivicin was tested in vivo on thirty rainbow trout (Onchorhynchus mykiss). […] The fish were followed for 30 days following the first day of the acivicin treatments. Deaths were documented and presented in terms of percent survival. Results from methods assessing the effect of acivicin treatment on the survival of the trout fry naturally infected are shown in the graph at FIG. 4. Thirty days after the acivicin administration began, 90% of the trout fry had survived , while only 30% of the untreated control group had survived the same 30 day period. […] By contrast, in the untreated fish group, deaths continued during the first 25 days of the observation period.

Stability in solution = type: physicochemical
reovirus = conditions: Balb/c cells; Keast et al. (1992); cited from earlier work
IPNV [9] = assay: Survival of IPNV-infected Atlantic salmon fry treated with neomycin by immersion; conditions: neomycin 10, 40 and 80 ppm, 1 hour daily bath through day 23
[10] = acivicin 25 and 70 μg/ml, 24 and 48 h.p.i.

## Nc1ncnc2c1ncn2CC(O)C(=O)O (centres unmarked) [AHPA, 3-adenine-9-yl-2-hydroxypropanoic acid]
In vitro
  CC50 at 3 days: 75 µg/mL (≈ 336 µM)

## C#Cc1c(C(N)=O)ncn1[C@@H]1O[C@H](CO)[C@@H](O)[C@H]1O [EICAR, 5-ethynyl-1-β-ribofuranosylimidazole-carboxamide]
IPNV strain VR-299 [1]; Jashés et al., Antiviral Res. 29:309 (1996)
  EC50 for IPNV: 0.01 µg/mL
IPNV [2]; rainbow trout and Coho salmon fry, given first day after infection, Moya et al. (2000)
  Deaths among experimentally IPNV-infected fry: fewer deaths occurred among the infected fry

## Nc1ncnc2c1ncn2C[C@H](O)CO [DHPA, (S)-9-(2.3-dihydroxypropyl) adenine]
IPNV [3]
  Cytotoxicity in RTG-2 cells: without presenting cytotoxicity

## NC(=O)c1ncn([C@@H]2O[C@H](CO)[C@@H](O)[C@H]2O)n1 [Ribavirin]
IPNV strain VR-299 [1]; Migus et al. (1980)
  Inhibition of IPNV replication in vitro: inhibit IPNV replication in vitro; also recorded: efficiently inhibits IPNV replication in vitro
IPNV [2]; Migus et al. (1980), Savan et al. (1980)
  Efficacy against IPNV in vivo: no efficacy in vivo

## COc1c(C)c2c(c(O)c1C/C=C(\C)CCC(=O)O)C(=O)OC2 [Myconhenolic Acid, 6-(4-hydroxy-6-methoxy-7-methyl-3-oxo-5-phthalanyl)-4-methyl-4-hexenoic acid]
IPNV strain VR-299 [4]
  EC50: 0.5 µg/mL (≈ 1.56 µM)
In vitro
  CC50 at 3 days: > 50 µg/mL

## N[C@H](C(=O)O)[C@@H]1CC(Cl)=NO1 [Acivicin, L (alpha S, 5S)-alpha-amino-3-chloro-4.5-dihydro-5-isoxazolacetic acid]
IPNV genomic RNA; [10]
  Effect on IPNV genomic RNA synthesis: did not inhibit
IPNV particles
  Effect on IPNV particle formation: inhibits the formation of IPNV viral particles
IPNV [5]; 2 hours pre-incubation
  EC50, virus samples pre-incubated 2 hours, versus not pre-incubated: not significantly different
IPNV [5]; no pre-incubation, read-out: EC50, virus samples without pre-incubation
  EC50: 4 µg/mL (≈ 22.4 µM)
IPNV [5]; pre-incubation with 1 to 6 μg/ml acivicin overnight, read-out: EC50, virus samples pre-incubated overnight with acivicin
  EC50: 2.5 µg/mL
IPNV [6]; days 21-36, all three treated groups, untreated infected deaths reached 54 percent
  Deaths after acivicin treatments were terminated: no deaths observed
IPNV [6]; each of the treated groups, treatment began day 9 post-infection
  Day post-treatment by which deaths stopped completely: ≤ 10 day post-treatment
IPNV [6]; infected fish, 7.0 μg/ml acivicin, 2 hour daily bath from day 9 to 21 post-infection, untreated infected 30%
  Mortality rate (accumulated deaths): 30%
IPNV [6]; infected fish, 10.5 μg/ml acivicin
  Survival: 92%
IPNV [6]; infected fish, 10.5 μg/ml acivicin, 2 hour daily bath from day 9 to 21 post-infection
  Accumulated deaths: 8%
IPNV [6]; infected fish, 14 μg/ml acivicin
  Survival: 89%
IPNV [6]; infected fish, 14 μg/ml acivicin, 2 hour daily bath from day 9 to 21 post-infection
  Mortality: 11%
[7]
  Toxicity in fish: not toxic in fish
IPNV [8]; 9 μg/ml acivicin, 15 day protocol, untreated deaths continued 25 days
  Day of treatment by which all deaths occurred: ≤ 12 days
IPNV [8]; fry 1.0±0.4 g, 9 μg/ml acivicin, daily bath of two hours, 15 days, untreated control 30%
  Survival thirty days after administration began: 90%
IPNV [8]; fry of approximately 0.8 g, treated 12 days with 9 μg/ml acivicin
  Survival: 98%
Stability in solution
  Stability in solution: stable in solution
reovirus
  Concentration inhibiting reovirus replication: 0.1 µg/mL
In vitro
  CC50: > 100 µg/mL
IPNV polypeptides; [10]
  Effect on IPNV polypeptide synthesis: did not inhibit

## neomycin
IPNV genomic RNA; neomycin 4 mg/ml added 1, 3, 5, 7 h.p.i., harvest 24 h.p.i.
  Effect on IPNV genomic RNA synthesis: inhibited the IPNV RNA synthesis
IPNV [9]
  Mortality outbreak, treatment from day thirteen post-infection: stop the mortality outbreak immediately
IPNV [9]; listed as neomycin
  Mortality outbreak, treatment from day thirteen post-infection: stopped dying immediately
IPNV polypeptides; neomycin 4 mg/ml added 1, 3, 5, 7 h.p.i., 24 h.p.i.
  Effect on IPNV polypeptide synthesis: does not inhibit IPNV polypeptide synthesis
